≈ marks a conversion by molar mass, not a printed value.
Columns and labels:
[1] = system: various Staphylococcus aureus strains; assay: Disc diffusion, Staphylococcus aureus strain study; format: cell-based; conditions: Staphylococcus aureus, 500 μg/mL
Source text: At this point in the study it was decided to perform a disc diffusion assay study on 50 S. aureus strains. […] Moreover, by employing a range of mutant strains of S. aureus with specific gene-deletions, it was believed that if particular strains were resistant to the lead compounds, it could provide insights on the likely protein target of the lead antibiotics. However, all six of the compounds utilized in this study were able to inhibit growth of all 50 strains of S. aureus assayed at the chosen concentration of 500 μg/mL concentration (Table 5).
(§1) E. coli DH5α, P. aeruginosa PA01 and the 53 S. aureus strains were recovered from frozen (−80° C.) glycerol (15% v/v) stocks on Lysogeny agar (LA)—Gram negative and trypticase soy agar (TSA)—plates at 37° C. for 24 hours. Single colonies were placed in either 3 mL Lysogeny broth (LB)—Gram negative or trypticase soy broth (TSB)—Gram positive and incubated at 37° C., 250 rpm for 18 hours.
(§2) The antibiotic activity was determined using a Kirby-Bauer method according to Clinical Standard Laboratory Institute (CSLI) Guidelines (2017). Briefly, 180 μL of a 1 in 200 dilution (in LB or TSB) of overnight cultures of selected Gram negative and Gram positive bacteria were applied to an agar plate containing the solid growth medium, Mueller-Hinton agar (MHA). Sterile discs, inoculated with 50 μL of antibiotic, were first added to the agar plate before the plates were incubated for 24 hours at 37° C. Following incubation, the zone of inhibition (if it existed) was recorded.

HEK293 cells = assay: Cytotoxicity assay, resazurin (CO-ADD); conditions: set concentration of 32 μg/mL
Procedure: The cytotoxicity studies were performed by CO-ADD (The Community for Open Antimicrobial Drug Discovery), funded by the Wellcome trust (UK) and the University of Queensland, Australia.^(28) In this study, the compounds were screened against a human embryonic kidney cell line, HEK293, at a set concentration of 32 μg/mL.
DMEM supplemented with 10% FBS was used as growth media and the cells were incubated together with the compounds for 20 hours at 37° C. in 5% CO2.
Cytotoxicity (or cell viability) was measured by fluorescence, excitation: 560/10 nm, emission: 590/10 nm (F560/590), after addition of 5 μL of 25 μg/mL Resazurin (2.3 μg/mL final concentration) and after incubation for further 3 h at 37° C. in 5% CO2. The fluorescence intensity was measured using a Tecan M1000 Pro monochromator plate reader, using automatic gain calculation CC50 (concentration at 50% cytotoxicity) were calculated by curve fitting the inhibition values vs. log(concentration) using sigmoidal dose-response function, with variable fitting values for bottom, top and slope. The curve fitting was implemented using Pipeline Pilot's dose-response component.

MSSA 476 [2] = assay: Disc diffusion (Kirby-Bauer), zone of inhibition; format: cell-based, Staphylococcus aureus; conditions: Staphylococcus aureus, 500 μg/mL, '/' = no zone, read-out: Zone of inhibition
Procedure: as §1, §2

MRSA 252 [3] = assay: Disc diffusion (Kirby-Bauer), zone of inhibition; format: cell-based, Staphylococcus aureus; conditions: Staphylococcus aureus, 500 μg/mL, '/' = no zone, read-out: Zone of inhibition
Procedure: as §1, §2

MSSA 476 [4] = assay: MIC, broth micro-dilution; format: cell-based, Staphylococcus aureus; conditions: Staphylococcus aureus, MSSA, read-out: MIC
Procedure: as §1
(§3) Antibiotic MIC's were determined by a broth micro-dilution method according to Clinical Standard Laboratory Institute (CSLI) Guidelines (2017). Briefly, 96-well microplates, each containing 195 μL of the 1:2 dilution antibiotic in TSB, were inoculated with 5 μL of overnight cultured bacteria, diluted to give a starting bacterial concentration of 5×10^5 CFU/mL. The optical density of each well inoculated was recorded every 12 minutes over an 18 hour period at 37° C. The data from this was plotted in OriginPro8 (OriginLab) and sigmoidal curves fitted using the dose response function. Fitted values for each curve were used to calculate the MIC.

MRSA 252 [5] = assay: MIC, broth micro-dilution; format: cell-based, Staphylococcus aureus; conditions: Staphylococcus aureus, read-out: MIC
Procedure: as §1, §3

[6] = system: Staphylococcus aureus 15981; assay: Disc diffusion (Kirby-Bauer), zone of inhibition; format: cell-based; conditions: Staphylococcus aureus 15981; 500 μg/mL; '/' = no zone; read-out: Zone of inhibition
Procedure: as §1, §2

Escherichia coli DH5α = assay: Disc diffusion (Kirby-Bauer), zone of inhibition; format: cell-based; conditions: Escherichia coli DH5α; 500 μg/mL; '/' = no zone; read-out: Zone of inhibition
Procedure: as §1, §2

[C-]#[N+]C=Cc1ccc(O)cc1 [Compound 2, 4-(2-Isocyanovinyl)phenol]
zone of inhibition at 500 µg/mL ([1]; MRSA, strain MRSA 252): 16 mm | zone of inhibition at 500 µg/mL ([1]; strain ASARM 61): 15 mm | zone of inhibition at 500 µg/mL ([1]; strain ASARM 70): 14 mm | zone of inhibition at 500 µg/mL ([1]; strain ASARM 71): 14 mm | zone of inhibition at 500 µg/mL ([1]; strain ASARM 72): 12 mm | zone of inhibition at 500 µg/mL ([1]; strain ASARM 73): 16 mm | zone of inhibition at 500 µg/mL ([1]; strain ASARM 75): 15 mm | zone of inhibition at 500 µg/mL ([1]; strain ASARM 76): 14 mm | zone of inhibition at 500 µg/mL ([1]; strain ASARM 77): 14 mm | zone of inhibition at 500 µg/mL ([1]; strain ASARM 79): 13 mm | zone of inhibition at 500 µg/mL ([1]; strain ASARM 80): 13 mm | zone of inhibition at 500 µg/mL ([1]; strain EOE 3): 12 mm | zone of inhibition at 500 µg/mL ([1]; strain EOE 23): 16 mm | zone of inhibition at 500 µg/mL ([1]; strain EOE 30): 18 mm | zone of inhibition at 500 µg/mL ([1]; strain EOE 35): 14 mm | zone of inhibition at 500 µg/mL ([1]; strain EOE 41): 17 mm | zone of inhibition at 500 µg/mL ([1]; strain EOE 42): 16 mm | zone of inhibition at 500 µg/mL ([1]; strain EOE 45): 15 mm | zone of inhibition at 500 µg/mL ([1]; strain EOE 52): 14 mm | zone of inhibition at 500 µg/mL ([1]; strain EOE 54): 16 mm | zone of inhibition at 500 µg/mL ([1]; strain EOE 57): 18 mm | zone of inhibition at 500 µg/mL ([1]; strain S139_7_7): 14 mm | zone of inhibition at 500 µg/mL ([1]; strain S197_1_1): 25 mm | zone of inhibition at 500 µg/mL ([1]; strain S197_1_8): 16 mm | zone of inhibition at 500 µg/mL ([1]; strain S197_1_9): 16 mm | zone of inhibition at 500 µg/mL ([1]; strain S197_1_10): 15 mm | zone of inhibition at 500 µg/mL ([1]; strain S295_1_1): 20 mm | zone of inhibition at 500 µg/mL ([1]; strain S295_1_2): 14 mm | zone of inhibition at 500 µg/mL ([1]; strain S295_1_3): 18 mm | zone of inhibition at 500 µg/mL ([1]; strain S364_5_11): 26 mm | zone of inhibition at 500 µg/mL ([1]; strain S364_5_12): 22 mm | zone of inhibition at 500 µg/mL ([1]; strain Sa_TPS 3026): 14 mm | zone of inhibition at 500 µg/mL ([1]; strain Sa_TPS 3072): 16 mm | zone of inhibition at 500 µg/mL ([1]; strain Sa_TPS 3092): 20 mm | zone of inhibition at 500 µg/mL ([1]; strain Sa_TPS 3097): 15 mm | zone of inhibition at 500 µg/mL ([1]; strain Sa_TPS 3103): 16 mm | zone of inhibition at 500 µg/mL ([1]; strain Sa_TPS 3104): 15 mm | zone of inhibition at 500 µg/mL ([1]; strain Sa_TPS 3106): 15 mm | zone of inhibition at 500 µg/mL ([1]; strain Sa_TPS 3118): 18 mm | zone of inhibition at 500 µg/mL ([1]; strain Sa_TPS 3133): 14 mm | zone of inhibition at 500 µg/mL ([1]; strain Sa_TPS 3134): 14 mm | zone of inhibition at 500 µg/mL ([1]; strain USFL 008): 14 mm | zone of inhibition at 500 µg/mL ([1]; strain USFL 009): 14 mm | zone of inhibition at 500 µg/mL ([1]; strain USFL 012): 16 mm | zone of inhibition at 500 µg/mL ([1]; strain USFL 016): 14 mm | zone of inhibition at 500 µg/mL ([1]; strain USFL 018): 15 mm | zone of inhibition at 500 µg/mL ([1]; strain USFL 020): 14 mm | zone of inhibition at 500 µg/mL ([1]; strain USFL 021): 16 mm | zone of inhibition at 500 µg/mL ([1]; strain USFL 028): 15 mm | zone of inhibition at 500 µg/mL ([1]; strain USFL 035): 15 mm | zone of inhibition at 500 µg/mL ([1]; strain USFL 054): 14 mm | toxicity towards the HEK293 cell line (in words) (HEK293 cells): no toxicity | zone of inhibition at 500 µg/mL (MSSA 476 [2]): 20 mm | zone of inhibition at 500 µg/mL (MRSA 252 [3]): 22 mm | MIC (MSSA 476 [4]): 100 µg/mL (≈ 689 µM) | MIC (MRSA 252 [5]): 90 µg/mL (≈ 620 µM) | zone of inhibition at 500 µg/mL [6]: 22 mm | zone of inhibition at 500 µg/mL (Escherichia coli DH5α): 20 mm

From US20240246905A1 (University of Leicester, priority 2021, published 2024)
